Experimental data from patent publication US20240398759A1, “INHIBITING SEROTONIN TRANSPORTER PROTEIN (5-HTT)” (priority 2022, published 2024).
Read-outs that look alike come from different tables or passages of the source.

Legend:
in vitro = settings: human hepatocytes
Method: (§4) A 2.5 uL aliquot of 100 μM test compound was incubated with 247.5 uL of cryopreserved hepatocytes suspended in serum-free incubation medium at 1 million viable cells/mL. The mixture was incubated at 37° C. and shaken at 500 rpm for the designated time points (0.5, 5, 10, 15, 30, 60, 90, or 120 min). At each time point, 25 uL aliquot of incubation mixture was transferred to 125 uL of cold acetonitrile containing internal standard, followed by centrifugation for 30 min at 3,220 g. 100 uL of supernatant was mixed with 100 uL of distilled water for analysis by LC-MS/MS. Peak area ratios were determined from extracted ion chromatograms and percent recovery was calculated.

[1] = human, 1 µM
Method: as §4

PDE4C1 = PDE4C1 (Homo sapiens (Human), UniProt Q08493); assay: PDE4 inhibition assay (fluorescence polarization), PDE4C1; format: biochemical; settings: 10 μM
Method: (§1) 100 μM dilutions of the test compounds were prepared in assay buffer (10% DMSO concentration) and 5 μl of the dilution was added to a 50 μl reaction so that the final concentration of DMSO is 1% in all of reactions. The enzymatic reactions were conducted at room temperature for 60 minutes in a 50 μl mixture containing PDE assay buffer, 100 nM FAM-cAMP, a PDE enzyme (Table 2.3.1) and the test compound (Section 2.2). After the enzymatic reaction, 100 μl of a binding solution (1:100 dilution of the binding agent with the binding agent diluent) was added to each reaction and the reaction was performed at room temperature for 60 minutes. Fluorescence intensity was measured at an excitation of 485 nm and an emission of 528 nm using a Tecan Infinite M1000 microplate reader.
(§2) • 1) Dilute 20 μM FAM-Cyclic-3′, 5′-AMP stock 100-fold with PDE buffer to make a 200 nM solution. • 2) Add 25 μl of FAM-Cyclic-3′,5′-AMP (200 nM) to each well designated “Positive Control”, “Test Inhibitor”, and “Substrate Control”. • 3) Add 20 μl of PDE assay buffer to each well designated “Substrate Control” and 45 μl of PDE assay buffer to each well designated “Blank”. • 4) Add 5 μl of inhibitor solution to each well designated “Test Inhibitor”. For the wells labeled “Positive Control”, “Substrate Control” and “Blank”, add 5 μl of the same solution without inhibitor (inhibitor buffer). • 5) Thaw PDE on ice. Upon first thaw, briefly spin tube containing enzyme to recover the full contents of the tube. • 6) Dilute PDE4 in PDE buffer to 7.5 pg/μl (0.15 ng/reaction)*. Initiate reaction by adding 20 µl of PDE4 (7.5 pg/μl) to the wells designated “Positive Control” and “Test Inhibitor.” • 7) Incubate at room temperature for 1 hour.
(§3) • 1) Mix binding agent thoroughly and dilute binding agent 1:100 with binding agent diluent. • 2) Add 100 μl diluted binding agent to each microwell. Incubate at room temperature for 1 hour with slow shaking. • 3) Read the fluorescent polarization of the sample in a microtiter-plate reader equipped for the measurement of fluorescence polarization, capable of excitation at wavelengths ranging from 485±5 nm and detection of emitted light ranging from 528±10 nm. Blank value is subtracted from all other values. • 4) Data Analysis: PDE activity assays were performed in duplicate at each concentration. Fluorescence intensity is converted to fluorescence polarization using the Tecan Magellan6 software. The fluorescence polarization data were analyzed using the computer software, Graphpad Prism. The fluorescence polarization (FPt) in absence of the compound in each data set was defined as 100% activity. In the absence of PDE and the compound, the value of fluorescent polarization (FPb) in each data set was defined as 0% activity. The percent activity in the presence of the compound was calculated according to the following equation: % activity=(FP−FPb)/(FPt−FPb)×100%, where FP=the fluorescence polarization in the presence of the compound. The values of % activity versus a series of compound concentrations were then plotted using non-linear regression analysis of sigmoidal dose-response curve generated with the equation Y=B+(T−B)/1+10^(LogEC50−X)×Hill Slope), where Y=percent activity, B=minimum percent activity, T=maximum percent activity, X=logarithm of compound and Hill Slope=slope factor or Hill coefficient. The IC50 value was determined by the concentration causing a half-maximal percent activity.

[2] = beagle, dog, in vivo
Description: (§5) HPLC Instrument: Shimsadzu (DGU-20A5R, Serial No: L20705621435 IX; LC-30AD Serial No: L20555611905 AE and L20555611816 AE; SIL-L30AC, Serial No: L20565605499 AE; Rack Changer II Serial No. L20585601125 SS; CTO20A: Serial No. L20205620413 CD; CBM-20A: Serial No. L20235636200 CD) • MS: AB API 5500 LC/MS/MS instrument (Serial No. EF221221812) • Column: Phenomenex Synergi 2.5 μm Polar-RP 100A. (50×3 mm) • Mobile Phase: (A) 5% Acetonitrile in Water (0.1% Formic acid); (B) 95% Acetonitrile in Water (0.1% Formic acid) • Samples: 50 μL of plasma sample+5 μL of blank solution+200 μL of acetonitrile for PPE (protein precipitation extraction).
(§6) The desired serial concentrations of working solutions were achieved by diluting stock solution of analyte with 50% acetonitrile in water solution. 5 μL of working solutions (5, 10, 20, 50, 100, 500, 1000, 5000, 10000 ng/mL) were added to 50 μL of the blank Beagle Dog plasma to achieve calibration standards of 0.5˜1000 ng/mL (0.5, 1, 2, 5, 10, 50, 100, 500, 1000 ng/mL) in a total volume of 55 μL. Five quality control samples at 1 ng/mL, 2 ng/mL, 5 ng/mL, 50 ng/mL and 800 ng/mL for plasma were prepared independently of those used for the calibration curves. These QC samples were prepared on the day of analysis in the same way as calibration standards.
(§7) 55 μL standards, 55 μL QC samples and 55 μL unknown samples 50 μL plasma with 5 μL blank solution) were added to 200 μL of acetonitrile containing IS mixture for precipitating protein respectively. Then the samples were vortexed for 30 s. After centrifugation at 4 degree Celsius, 3900 rpm for 15 min, the supernatant was diluted 3 times with water.

PDE4D2 = PDE4D2 (Homo sapiens (Human), UniProt Q08499); assay: PDE4 inhibition assay (fluorescence polarization), PDE4D2; format: biochemical; settings: 10 μM
Method: as §1, §2, §3

in vivo = settings: beagle, dog
Description: as §5, §6, §7

mouse behavior = assay: SmartCube system behavioral signature in mice; format: in vivo
Description: To confirm that compound 018 and Compound 019 has antidepressant effects, the SmartCube® system (Psychogenics, Inc., Paramus, NJ) was used. This system uses features derived from mouse behavioral data to classify compounds for their ability to treat neuro-psychiatric symptoms by comparing the features to a proprietary reference database of behavioral feature sets that are linked to classes of marketed drugs known to treat neuro-psychiatric symptoms. Thus the system can be used as a model to identify the psychiatric effect of a compound by comparing the effects of the compounds against drugs with known validated effects. By comparing the responses of animals to known drugs, the test drug can be categorized according to its function; for example, hallucinogen, anxiogenic, analgesic, cognitive enhancer, psychostimulant, mood stabilizer, high dose anti-psychotic, anti-psychotic, sedative/hypnotic, anxiolytic, high dose antidepressant, antidepressant.
Once all features are extracted from the raw data through an automated pipeline, proprietary bioinformatics algorithms are used to decorrelate groups of features and find the combination of values that best separate different groups of interest. For each compound, at each dose, they system provides a probability that the drug is active and breaks down such putative activity into the different classes of interest.
Mice were tested in the SmartCube® system where they were exposed to a sequence of challenges during the 45-minute test period. The cubes were cleaned between each run.
For class and subclass analysis, a reference data set has been built from hundreds of drug doses in multiple drug classes plus a control group. Each reference drug was tested at multiple doses appropriate for that drug in mice. The best performing classifiers were chosen from our evaluation tests and two separate types of classifiers were built that make independent predictions at drug class and subclass levels. The Class consists of drugs that are currently in the market or have been clinically validated for that specific indication. The sub-class consists of both marketed drugs and other compounds that have been mechanistically validated and is a larger set than the Class.
Data was processed using proprietary computer vision and data mining algorithms and the results were compared to signatures of the reference compounds in our database. Multiple analyses of the data was performed to quantitatively produce independent predictions of drug class, and drug subclass. The behavioral signatures of the test drug were evaluated using these classifiers to predict potential therapeutic utility.

PDE4A1A = PDE4A1A (Homo sapiens (Human), UniProt P27815); assay: PDE4 inhibition assay (fluorescence polarization), PDE4A1A; format: biochemical; settings: 10 μM
Method: as §1, §2, §3

[3] = Hepatocyte metabolism (stability in cryopreserved hepatocytes); settings: human hepatocytes
Method: as §4

PDE4B2 = PDE4B2 (Homo sapiens (Human), UniProt Q07343); assay: PDE4 inhibition assay (fluorescence polarization), PDE4B2; format: biochemical
Method: as §1, §2, §3

SERT = SERT (Homo sapiens (Human), UniProt P31645); assay: SERT inhibition assay (Neurotransmitter Transporter fluorescence uptake, stable 5HTT HEK293 cells); format: cell-based; settings: n=6 ± SD
Method: SERT inhibition was measured using a Neruotransmitter Transportation Fluorescence assay. Briefly, stable 5HTT HEK293 cells were prepared in a 384 microwell plate (20,000 cells per 20 μL well). Compounds were prepared by in assay buffer (20 mM HEPES in HBSS, 0.1% BSA) at a top concentration of 1 μM. 10 doses of test compound (3-fold serial dilution) were added to the plated cells and incubated for 30 minutes at 37° C. 25 μL of dye solution (Molecular Devices Neurotransmitter Transporter Uptake Assay Kit) was added per well and incubated for 30 minutes at 37° C.

Sequence of PDE4A1A (P27815 other isoform, or with tags, fused parts or gaps): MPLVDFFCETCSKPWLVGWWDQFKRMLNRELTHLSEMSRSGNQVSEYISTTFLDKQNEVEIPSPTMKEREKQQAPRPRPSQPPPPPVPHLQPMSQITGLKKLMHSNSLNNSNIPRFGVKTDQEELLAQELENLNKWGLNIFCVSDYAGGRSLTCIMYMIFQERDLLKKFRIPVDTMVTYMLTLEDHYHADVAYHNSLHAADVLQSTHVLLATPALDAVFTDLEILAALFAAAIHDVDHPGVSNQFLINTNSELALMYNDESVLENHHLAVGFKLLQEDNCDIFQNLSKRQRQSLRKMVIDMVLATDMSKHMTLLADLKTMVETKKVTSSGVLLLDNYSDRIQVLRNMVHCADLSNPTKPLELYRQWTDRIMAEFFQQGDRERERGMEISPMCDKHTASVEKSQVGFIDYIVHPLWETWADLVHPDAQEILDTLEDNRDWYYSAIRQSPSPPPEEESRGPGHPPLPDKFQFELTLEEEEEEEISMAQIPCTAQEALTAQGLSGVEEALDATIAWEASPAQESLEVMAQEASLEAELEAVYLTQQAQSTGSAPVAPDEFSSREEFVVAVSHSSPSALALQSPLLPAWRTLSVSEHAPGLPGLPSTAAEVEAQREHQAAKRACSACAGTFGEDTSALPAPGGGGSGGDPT
Sequence of PDE4C1 (Q08493 whole entry): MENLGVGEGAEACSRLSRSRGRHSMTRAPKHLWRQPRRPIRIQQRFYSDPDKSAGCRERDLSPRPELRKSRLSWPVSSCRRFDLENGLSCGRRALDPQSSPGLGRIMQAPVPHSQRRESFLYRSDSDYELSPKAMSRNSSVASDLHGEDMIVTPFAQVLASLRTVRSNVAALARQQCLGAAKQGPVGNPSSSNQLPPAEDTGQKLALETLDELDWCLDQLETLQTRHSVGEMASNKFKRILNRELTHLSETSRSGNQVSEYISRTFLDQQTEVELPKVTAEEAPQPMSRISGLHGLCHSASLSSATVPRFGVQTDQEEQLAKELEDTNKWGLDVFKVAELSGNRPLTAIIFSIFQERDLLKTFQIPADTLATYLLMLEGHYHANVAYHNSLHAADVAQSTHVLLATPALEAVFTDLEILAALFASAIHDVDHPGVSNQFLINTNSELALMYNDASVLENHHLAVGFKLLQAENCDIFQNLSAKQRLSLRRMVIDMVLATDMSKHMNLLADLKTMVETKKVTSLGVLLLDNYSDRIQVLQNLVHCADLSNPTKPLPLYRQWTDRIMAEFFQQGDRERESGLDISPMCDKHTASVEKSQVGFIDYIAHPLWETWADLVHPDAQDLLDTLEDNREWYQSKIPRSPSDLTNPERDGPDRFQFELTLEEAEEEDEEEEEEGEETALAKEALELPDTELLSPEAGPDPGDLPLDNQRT
Sequence of PDE4B2 (Q07343 other isoform, or with tags, fused parts or gaps): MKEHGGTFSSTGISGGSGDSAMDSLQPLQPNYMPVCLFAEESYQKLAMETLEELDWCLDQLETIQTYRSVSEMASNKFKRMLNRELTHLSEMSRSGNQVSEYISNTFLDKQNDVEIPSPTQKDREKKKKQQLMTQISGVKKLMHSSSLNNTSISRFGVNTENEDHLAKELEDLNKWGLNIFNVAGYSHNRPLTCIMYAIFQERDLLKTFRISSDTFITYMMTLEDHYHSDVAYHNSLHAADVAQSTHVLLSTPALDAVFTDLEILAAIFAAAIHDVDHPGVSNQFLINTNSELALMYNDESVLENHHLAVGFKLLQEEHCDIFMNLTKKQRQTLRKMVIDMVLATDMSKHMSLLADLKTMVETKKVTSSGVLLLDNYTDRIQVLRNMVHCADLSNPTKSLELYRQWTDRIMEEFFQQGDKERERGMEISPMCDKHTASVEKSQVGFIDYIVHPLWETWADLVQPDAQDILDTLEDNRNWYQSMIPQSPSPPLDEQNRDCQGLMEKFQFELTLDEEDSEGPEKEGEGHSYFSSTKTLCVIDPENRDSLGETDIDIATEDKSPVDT
Sequence of PDE4D2 (Q08499 303-809): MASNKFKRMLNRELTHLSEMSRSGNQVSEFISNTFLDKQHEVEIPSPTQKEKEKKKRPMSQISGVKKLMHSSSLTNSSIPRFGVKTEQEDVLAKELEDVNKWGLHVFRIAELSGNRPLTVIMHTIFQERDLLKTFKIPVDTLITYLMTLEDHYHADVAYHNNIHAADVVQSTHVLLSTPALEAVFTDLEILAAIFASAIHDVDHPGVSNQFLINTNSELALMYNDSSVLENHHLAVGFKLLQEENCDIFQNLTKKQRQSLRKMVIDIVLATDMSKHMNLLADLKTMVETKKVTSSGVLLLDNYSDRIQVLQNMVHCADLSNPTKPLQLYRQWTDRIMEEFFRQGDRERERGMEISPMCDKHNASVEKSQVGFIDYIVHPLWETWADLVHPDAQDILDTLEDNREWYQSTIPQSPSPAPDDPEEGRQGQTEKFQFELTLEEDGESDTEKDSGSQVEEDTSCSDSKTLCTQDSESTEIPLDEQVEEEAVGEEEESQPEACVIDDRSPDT

COc1ccc([C@@]23CC[C@@H](O)C[C@@H]2N(C)CC3)cc1OC [Compound 018, (3aS,6R,7aS)-3a-(3,4-dimethoxyphenyl)-1-methyloctahydro-1H-indol-6-ol]
CLint scaled at 1 µM (in vitro): 3 mL/min/kg | half-life at 1 µM (in vitro): > 2 h | hepatocyte CLint at 1 µM (in vitro): 1 µL/min/1e6 cells | % QH [1]: 13% | CLHB [1]: 3 mL/min/kg | PDE4C1 % INH @ 10 μM (PDE4C1): 1% | PDE4C1 % INH @ 10 μM (PDE4C1; listed as Compound 18): no more than 5% | AUC_% Extrap_obs ([2]; iv, 2 mg/kg): 0.26% | AUClast/D ([2]; iv, 2 mg/kg): 355 | Cl_obs ([2]; iv, 2 mg/kg): 47.6 mL/min/kg | AUC_% Extrap_obs ([2]; po, 10 mg/kg): 5.10% | AUClast/D ([2]; po, 10 mg/kg): 14.4 | F ([2]; po, 10 mg/kg): 4.3% | PDE4D2 %INH @ 10 μM (PDE4D2): 4% | inhibition at 10 µM (PDE4D2; read-out: PDE4D2 %INH @ 10 μM): ≤ 5% | AUC(0-inf) (in vivo; iv, 2 mg/kg): 712 ng·h/mL | AUC(0-t) (in vivo; iv, 2 mg/kg): 710 ng·h/mL | C0 (in vivo; iv, 2 mg/kg): 6250 ng/mL | MRT inf (in vivo; iv, 2 mg/kg): 0.71 h | half-life (in vivo; iv, 2 mg/kg): 1.78 h | AUC(0-inf) (in vivo; po, 10 mg/kg): 151 ng·h/mL | AUC(0-t) (in vivo; po, 10 mg/kg): 144 ng·h/mL | Cmax (in vivo; po, 10 mg/kg): 84.4 ng/mL | MRT inf (in vivo; po, 10 mg/kg): 3.95 h | Tmax (in vivo; po, 10 mg/kg): 0.28 h | half-life (in vivo; po, 10 mg/kg): 5.95 h | behavioral activity (mouse behavior; mice, 3 mg/kg): < 40% | behavioral activity (in words) (mouse behavior; mice, 3 mg/kg): behaviorally inactive | signature in class and subclass (mouse behavior; mice, 10, 30 and 100 mg/kg): robust antidepressant-like signature with a small portion showing psychostimulant-like signature | PDE4A1A % INH @ 10 μM (PDE4A1A): 5% | inhibition at 10 µM (PDE4A1A; read-out: PDE4A1A % INH @ 10 μM): ≤ 5% | Extraction Ratio [3]: 0.13 | t1/2 [3]: >2 h | PDE4B2 % INH @ 10 μM (PDE4B2): 3% | inhibition at 10 µM (PDE4B2; read-out: PDE4B2 % INH @ 10 μM): ≤ 5% | IC50 (SERT): 21.9 ± 8 nM
